{
  "source": "paper PMC10243098",
  "about": "(Journal of medicinal chemistry, 2023)",
  "key": {"[1]": {"target": "HAT1/Rbap46 enzyme complex (Homo sapiens, UniProt O14929)", "sequence (O14929 whole entry)": "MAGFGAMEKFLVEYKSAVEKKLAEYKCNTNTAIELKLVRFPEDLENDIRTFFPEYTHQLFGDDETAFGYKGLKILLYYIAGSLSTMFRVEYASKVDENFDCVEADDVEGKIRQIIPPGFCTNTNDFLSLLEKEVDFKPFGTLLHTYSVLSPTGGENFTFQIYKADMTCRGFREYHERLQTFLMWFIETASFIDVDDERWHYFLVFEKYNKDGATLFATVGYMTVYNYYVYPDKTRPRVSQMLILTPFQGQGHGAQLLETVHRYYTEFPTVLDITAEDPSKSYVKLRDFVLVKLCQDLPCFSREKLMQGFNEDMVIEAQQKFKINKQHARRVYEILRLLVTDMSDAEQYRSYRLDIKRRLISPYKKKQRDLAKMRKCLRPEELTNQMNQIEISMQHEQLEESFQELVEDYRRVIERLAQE", "sequence (Q16576 whole entry partner)": "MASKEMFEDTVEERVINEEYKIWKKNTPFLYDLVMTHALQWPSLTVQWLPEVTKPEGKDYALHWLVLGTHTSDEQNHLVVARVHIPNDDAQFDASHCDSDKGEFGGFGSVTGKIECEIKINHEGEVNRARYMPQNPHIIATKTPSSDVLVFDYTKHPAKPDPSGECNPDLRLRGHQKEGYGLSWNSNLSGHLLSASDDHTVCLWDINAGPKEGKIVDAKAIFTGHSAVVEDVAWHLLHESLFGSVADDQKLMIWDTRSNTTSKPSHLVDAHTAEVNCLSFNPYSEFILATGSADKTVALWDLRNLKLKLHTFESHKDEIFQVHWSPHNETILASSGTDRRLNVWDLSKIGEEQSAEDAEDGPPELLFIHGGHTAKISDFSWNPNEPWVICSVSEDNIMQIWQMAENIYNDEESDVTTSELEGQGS", "experiment": "HAT1 acetyl-click assay"}, "[2]": {"tested_on": "A549 tumors", "experiment": "A549 xenograft tumor growth", "settings": "50 mg/kg and 100 mg/kg i.p. once every three days; p < 0.0001"}, "[3]": {"target": "GCN5 (Homo sapiens, UniProt Q92830)", "sequence (Q92830 whole entry)": "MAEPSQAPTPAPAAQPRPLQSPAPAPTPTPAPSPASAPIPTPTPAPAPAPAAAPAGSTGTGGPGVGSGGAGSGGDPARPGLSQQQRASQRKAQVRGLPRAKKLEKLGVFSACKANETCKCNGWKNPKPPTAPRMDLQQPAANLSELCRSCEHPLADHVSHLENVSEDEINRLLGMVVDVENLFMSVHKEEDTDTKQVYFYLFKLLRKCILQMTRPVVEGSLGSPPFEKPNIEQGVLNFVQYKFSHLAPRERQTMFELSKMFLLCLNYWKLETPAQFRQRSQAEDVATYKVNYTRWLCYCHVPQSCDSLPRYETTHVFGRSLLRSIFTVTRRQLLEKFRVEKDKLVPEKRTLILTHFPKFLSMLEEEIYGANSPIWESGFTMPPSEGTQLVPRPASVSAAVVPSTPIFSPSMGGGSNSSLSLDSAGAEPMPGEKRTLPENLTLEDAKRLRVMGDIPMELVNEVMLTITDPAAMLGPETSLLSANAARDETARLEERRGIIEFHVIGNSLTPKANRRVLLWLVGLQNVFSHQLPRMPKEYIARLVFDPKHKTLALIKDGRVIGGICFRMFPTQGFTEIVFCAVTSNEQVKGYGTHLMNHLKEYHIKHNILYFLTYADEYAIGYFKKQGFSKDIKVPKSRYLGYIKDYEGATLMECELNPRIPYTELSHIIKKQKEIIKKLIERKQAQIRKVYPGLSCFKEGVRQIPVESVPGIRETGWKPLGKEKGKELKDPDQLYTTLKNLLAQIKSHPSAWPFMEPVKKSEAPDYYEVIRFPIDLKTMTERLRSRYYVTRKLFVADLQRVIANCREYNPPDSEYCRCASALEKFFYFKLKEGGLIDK", "experiment": "Other acetyltransferase assay", "assay_type": "biochemical", "settings": "up to 100 μM"}, "[4]": {"target": "KAT5 (Homo sapiens, UniProt Q92993)", "sequence (Q92993 whole entry)": "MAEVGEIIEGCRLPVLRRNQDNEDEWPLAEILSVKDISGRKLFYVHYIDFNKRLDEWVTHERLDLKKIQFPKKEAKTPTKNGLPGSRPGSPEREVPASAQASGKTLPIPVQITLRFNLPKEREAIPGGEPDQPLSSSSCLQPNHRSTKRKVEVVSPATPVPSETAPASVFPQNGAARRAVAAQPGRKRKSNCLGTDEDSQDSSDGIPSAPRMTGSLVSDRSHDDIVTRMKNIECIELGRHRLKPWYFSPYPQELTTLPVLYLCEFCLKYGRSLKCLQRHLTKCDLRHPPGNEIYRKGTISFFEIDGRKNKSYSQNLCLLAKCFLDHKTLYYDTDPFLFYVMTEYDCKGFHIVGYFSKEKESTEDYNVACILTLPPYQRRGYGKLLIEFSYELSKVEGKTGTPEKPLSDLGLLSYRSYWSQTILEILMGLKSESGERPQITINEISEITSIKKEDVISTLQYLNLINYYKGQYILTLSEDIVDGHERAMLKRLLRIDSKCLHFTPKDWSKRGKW", "experiment": "Other acetyltransferase assay", "assay_type": "biochemical", "settings": "up to 100 μM"}, "[5]": {"tested_on": "H4K12Ac in A549 tumors", "experiment": "H4K12Ac immunofluorescence in A549 tumors after single i.p. dose", "settings": "tumors harvested 24 hours later"}, "[6]": {"settings": "mouse, in vivo, ip"}, "[7]": {"experiment": "Plasma pharmacokinetics after single i.p. injection", "settings": "female, CD1, mouse, intraperitoneal, 100 mg/kg"}, "[8]": {"target": "MYST4/KAT6b (Homo sapiens, UniProt Q8WYB5)", "sequence (Q8WYB5 whole entry)": "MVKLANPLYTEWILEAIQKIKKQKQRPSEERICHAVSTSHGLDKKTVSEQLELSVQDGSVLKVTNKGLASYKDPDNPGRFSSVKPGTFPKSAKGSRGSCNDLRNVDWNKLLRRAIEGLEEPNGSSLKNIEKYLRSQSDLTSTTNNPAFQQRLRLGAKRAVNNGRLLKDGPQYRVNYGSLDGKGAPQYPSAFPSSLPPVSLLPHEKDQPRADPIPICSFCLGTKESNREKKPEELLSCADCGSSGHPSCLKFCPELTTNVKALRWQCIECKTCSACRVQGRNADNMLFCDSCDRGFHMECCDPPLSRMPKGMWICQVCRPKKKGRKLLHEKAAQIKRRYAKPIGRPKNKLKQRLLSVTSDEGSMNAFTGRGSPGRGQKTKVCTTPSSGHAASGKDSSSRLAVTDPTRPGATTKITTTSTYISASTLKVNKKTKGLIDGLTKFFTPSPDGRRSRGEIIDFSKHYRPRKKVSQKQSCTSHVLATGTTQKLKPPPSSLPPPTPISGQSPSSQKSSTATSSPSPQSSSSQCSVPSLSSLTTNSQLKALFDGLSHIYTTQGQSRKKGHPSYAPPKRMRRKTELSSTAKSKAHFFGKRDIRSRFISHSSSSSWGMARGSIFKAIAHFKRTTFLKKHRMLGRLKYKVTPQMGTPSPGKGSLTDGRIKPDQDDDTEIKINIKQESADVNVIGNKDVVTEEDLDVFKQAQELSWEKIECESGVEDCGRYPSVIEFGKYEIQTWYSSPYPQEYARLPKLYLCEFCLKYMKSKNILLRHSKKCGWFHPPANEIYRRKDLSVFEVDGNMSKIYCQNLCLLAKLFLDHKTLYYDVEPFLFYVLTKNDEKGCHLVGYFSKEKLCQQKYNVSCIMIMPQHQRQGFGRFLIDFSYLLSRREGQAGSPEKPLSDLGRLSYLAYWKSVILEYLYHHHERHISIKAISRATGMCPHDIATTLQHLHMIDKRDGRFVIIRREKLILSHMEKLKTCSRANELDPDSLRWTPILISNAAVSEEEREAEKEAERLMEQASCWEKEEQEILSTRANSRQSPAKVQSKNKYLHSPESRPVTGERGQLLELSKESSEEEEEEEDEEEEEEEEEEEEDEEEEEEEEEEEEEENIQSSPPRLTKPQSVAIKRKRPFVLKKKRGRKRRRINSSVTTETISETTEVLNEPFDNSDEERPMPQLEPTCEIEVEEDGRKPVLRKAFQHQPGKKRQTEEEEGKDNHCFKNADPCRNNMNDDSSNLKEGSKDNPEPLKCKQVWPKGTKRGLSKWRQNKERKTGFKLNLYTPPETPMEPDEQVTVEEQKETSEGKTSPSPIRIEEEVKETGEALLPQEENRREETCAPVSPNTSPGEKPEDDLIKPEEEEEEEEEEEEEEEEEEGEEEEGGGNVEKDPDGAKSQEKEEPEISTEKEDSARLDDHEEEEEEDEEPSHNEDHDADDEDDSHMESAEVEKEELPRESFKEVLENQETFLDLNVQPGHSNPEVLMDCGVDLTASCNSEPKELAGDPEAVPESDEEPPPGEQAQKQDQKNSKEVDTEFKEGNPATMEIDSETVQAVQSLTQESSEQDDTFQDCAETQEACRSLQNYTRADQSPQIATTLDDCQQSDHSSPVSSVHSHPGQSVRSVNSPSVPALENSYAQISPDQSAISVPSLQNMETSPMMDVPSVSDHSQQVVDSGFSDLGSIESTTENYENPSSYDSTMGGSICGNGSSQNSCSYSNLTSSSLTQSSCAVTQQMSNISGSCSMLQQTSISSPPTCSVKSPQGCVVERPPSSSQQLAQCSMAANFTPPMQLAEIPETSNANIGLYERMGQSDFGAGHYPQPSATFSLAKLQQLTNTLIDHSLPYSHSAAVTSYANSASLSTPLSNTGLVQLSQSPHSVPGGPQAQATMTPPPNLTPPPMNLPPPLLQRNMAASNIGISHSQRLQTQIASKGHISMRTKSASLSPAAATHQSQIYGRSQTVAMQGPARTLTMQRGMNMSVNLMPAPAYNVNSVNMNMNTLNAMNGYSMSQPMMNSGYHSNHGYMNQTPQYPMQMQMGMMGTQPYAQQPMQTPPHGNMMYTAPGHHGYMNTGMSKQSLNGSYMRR", "experiment": "Other acetyltransferase assay", "assay_type": "biochemical", "settings": "up to 100 μM"}, "[9]": {"target": "PCAF (Homo sapiens, UniProt Q92831)", "sequence (Q92831 whole entry)": "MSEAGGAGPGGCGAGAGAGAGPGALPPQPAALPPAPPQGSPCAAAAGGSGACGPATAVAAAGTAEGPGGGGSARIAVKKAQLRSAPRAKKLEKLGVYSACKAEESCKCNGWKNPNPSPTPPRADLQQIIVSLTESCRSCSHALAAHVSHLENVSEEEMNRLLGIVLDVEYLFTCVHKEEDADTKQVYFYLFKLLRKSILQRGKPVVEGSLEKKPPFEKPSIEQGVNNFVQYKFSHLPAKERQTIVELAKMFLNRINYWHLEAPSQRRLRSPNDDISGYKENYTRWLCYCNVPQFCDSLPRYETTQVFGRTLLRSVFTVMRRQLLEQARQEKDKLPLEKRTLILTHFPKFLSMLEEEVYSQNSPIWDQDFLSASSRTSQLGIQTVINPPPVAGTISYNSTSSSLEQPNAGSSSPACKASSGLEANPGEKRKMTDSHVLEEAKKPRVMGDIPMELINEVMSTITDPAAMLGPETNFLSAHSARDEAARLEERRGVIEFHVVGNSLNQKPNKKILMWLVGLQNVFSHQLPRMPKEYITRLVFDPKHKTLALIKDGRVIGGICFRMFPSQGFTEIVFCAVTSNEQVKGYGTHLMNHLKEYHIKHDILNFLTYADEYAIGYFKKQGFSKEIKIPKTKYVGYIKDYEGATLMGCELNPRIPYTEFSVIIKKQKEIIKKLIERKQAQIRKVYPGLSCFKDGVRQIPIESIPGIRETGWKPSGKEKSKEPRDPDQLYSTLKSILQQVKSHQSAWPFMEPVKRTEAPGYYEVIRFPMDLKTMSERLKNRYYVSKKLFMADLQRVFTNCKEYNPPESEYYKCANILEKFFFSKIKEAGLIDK", "experiment": "Other acetyltransferase assay", "assay_type": "biochemical", "settings": "up to 100 μM"}, "[10]": {"tested_on": "FAD-dependent oxidase", "experiment": "FAD oxidase reaction", "assay_type": "biochemical", "settings": "0.01 μM FAD"}, "[11]": {"tested_on": "H4 lysine 5 and 12 acetylation", "experiment": "Nascent histone H4 acetylation in hTert-HME1 cells", "assay_type": "cell-based, human", "settings": "hTert-HME1, 12 hours"}, "[12]": {"experiment": "Dose-finding tolerability, single i.p. injection", "settings": "mice"}, "[13]": {"tested_on": "HCC1806 cells", "experiment": "Cell growth inhibition", "assay_type": "cell-based, human"}},
  "data": [
    {"compound": "CCc1cc2c(cc1Cl)nc1c(=O)[nH]c(=O)nc-1n2CCOCc1cccc(F)c1", "note": "[Compound 20b, 7-Chloro-8-ethyl-10-(2-((3-fluorobenzyl)oxy)ethyl)benzo[g]pteridine-2,4(3H,10H)-dione]", "values": [
      {"measurement": "HAT1 inhibitory activity (in words)", "setting": "[1]", "value": "interfered with enzyme inhibition"}
    ]},
    {"compound": "CCc1cc2c(cc1Cl)nc1c(=O)[nH]c(=O)nc-1n2CCOCC(C)C", "note": "[JG-2016, 7-Chloro-8-ethyl-10-(2-isobutoxyethyl)benzo[g]pteridine-2,4(3H,10H)-dione]", "values": [
      {"measurement": "tumor growth versus vehicle", "setting": "[2]", "value": "significantly impaired tumor growth"},
      {"measurement": "inhibitory activity towards GCN5", "setting": "[3]", "value": "minimal or undetectable inhibitory activity"},
      {"measurement": "inhibitory activity towards KAT5", "setting": "[4]", "value": "minimal or undetectable inhibitory activity"},
      {"measurement": "H4K12Ac signal in tumors", "setting": "[5]", "value": "dose-dependent decrease"},
      {"measurement": "tolerated dose with minimal toxicity", "setting": "[6]", "value": "up to 250 mg/kg"},
      {"measurement": "concentration at 72 h", "setting": "[7]", "value": "2050 ± 233", "unit": "nM"},
      {"measurement": "inhibitory activity towards MYST4/KAT6b", "setting": "[8]", "value": "minimal or undetectable inhibitory activity"},
      {"measurement": "inhibitory activity towards PCAF", "setting": "[9]", "value": "minimal or undetectable inhibitory activity"},
      {"measurement": "inhibition of FAD-dependent oxidase", "setting": "[10]", "value": "no significant inhibitory activity"},
      {"measurement": "H4 lysine 5 and 12 acetylation in cells", "setting": "[11]", "value": "dose-dependent inhibition"},
      {"measurement": "dose at which signs of distress were observed", "setting": "[12]", "value": 500, "unit": "mg/kg"}
    ]},
    {"compound": "Cc1cc2nc3c(=O)[nH]c(=O)nc-3n(C[C@H](O)[C@H](O)[C@H](O)COP(=O)(O)O)c2cc1C", "note": "[FMN, flavin-mononucleotide, reference compound]", "values": [
      {"measurement": "HAT1 inhibitory activity (in words)", "setting": "[1]", "value": "no detectable inhibitory activity"}
    ]},
    {"compound": "CC(=O)SCCNC(=O)CCNC(=O)[C@H](O)C(C)(C)COP(=O)(O)OP(=O)(O)OC[C@H]1O[C@@H](n2cnc3c(N)ncnc32)[C@H](O)[C@@H]1OP(=O)(O)O", "note": "[acetyl-CoA]", "values": [
      {"measurement": "preference of enzyme for native cofactor versus 4-pentynoyl-CoA", "setting": "[1]", "value": "> 100", "unit": "fold"},
      {"measurement": "suppression of pentynoylated product", "setting": "[1]; 1 μM acetyl-CoA, 100 μM 4-pentynoyl-CoA", "value": "completely suppressed"}
    ]},
    {"compound": "3-(3-(7-Chloro-8-ethyl-2,4-dioxo-3,4-dihydrobenzo[g]pteridin-10(2H)-yl)propoxy)benzonitrile [Compound 37i]", "values": [
      {"measurement": "HAT1 inhibitory activity (in words)", "setting": "[1]", "value": "interfered with enzyme inhibition"}
    ]},
    {"compound": "Cc1cc2nc3[nH]c(=O)[nH]c(=O)c3nc2cc1C", "note": "[di-methyl-alloxazine, reference compound]", "values": [
      {"measurement": "HAT1 inhibitory activity (in words)", "setting": "[1]", "value": "no detectable inhibitory activity"}
    ]},
    {"compound": "Cc1cc2nc3c(=O)[nH]c(=O)nc-3n(C[C@H](O)[C@H](O)[C@H](O)CO)c2cc1N(C)C", "note": "[roseoflavin, reference compound]", "values": [
      {"measurement": "HAT1 inhibitory activity (in words)", "setting": "[1]", "value": "inactive"},
      {"measurement": "cell growth inhibitory activity (in words)", "setting": "[13]", "value": "strong cell growth inhibitory properties"}
    ]},
    {"compound": "Cc1cc2nc3c(=O)[nH]c(=O)nc-3n(C[C@H](O)[C@H](O)[C@H](O)COP(=O)(O)OP(=O)(O)OC[C@H]3O[C@@H](n4cnc5c(N)ncnc54)[C@H](O)[C@@H]3O)c2cc1C", "note": "[FAD, flavin-adenine-dinucleotide, reference compound]", "values": [
      {"measurement": "HAT1 inhibitory activity (in words)", "setting": "[1]", "value": "no detectable inhibitory activity"}
    ]},
    {"compound": "CCc1cc2c(cc1Cl)nc1c(=O)[nH]c(=O)nc-1n2CCOCc1ccc(C#N)cc1", "note": "[Compound 24g, 4-((2-(7-Chloro-8-ethyl-2,4-dioxo-3,4-dihydrobenzo[g]pteridin-10(2H)-yl)ethoxy)methyl)benzonitrile]", "values": [
      {"measurement": "HAT1 inhibitory activity (in words)", "setting": "[1]", "value": "interfered with enzyme inhibition"}
    ]}
  ]
}
